The structures appear in SMILES notation.

In one data set the target is T1, human glucocorticoid receptor protein (GR) (Homo sapiens, UniProt P04150).
T1 construct: made in house; host or cells: Spodoptera frugiperda Sf21 insect cells (baculovirus)
T1 sequence (P04150 1-777): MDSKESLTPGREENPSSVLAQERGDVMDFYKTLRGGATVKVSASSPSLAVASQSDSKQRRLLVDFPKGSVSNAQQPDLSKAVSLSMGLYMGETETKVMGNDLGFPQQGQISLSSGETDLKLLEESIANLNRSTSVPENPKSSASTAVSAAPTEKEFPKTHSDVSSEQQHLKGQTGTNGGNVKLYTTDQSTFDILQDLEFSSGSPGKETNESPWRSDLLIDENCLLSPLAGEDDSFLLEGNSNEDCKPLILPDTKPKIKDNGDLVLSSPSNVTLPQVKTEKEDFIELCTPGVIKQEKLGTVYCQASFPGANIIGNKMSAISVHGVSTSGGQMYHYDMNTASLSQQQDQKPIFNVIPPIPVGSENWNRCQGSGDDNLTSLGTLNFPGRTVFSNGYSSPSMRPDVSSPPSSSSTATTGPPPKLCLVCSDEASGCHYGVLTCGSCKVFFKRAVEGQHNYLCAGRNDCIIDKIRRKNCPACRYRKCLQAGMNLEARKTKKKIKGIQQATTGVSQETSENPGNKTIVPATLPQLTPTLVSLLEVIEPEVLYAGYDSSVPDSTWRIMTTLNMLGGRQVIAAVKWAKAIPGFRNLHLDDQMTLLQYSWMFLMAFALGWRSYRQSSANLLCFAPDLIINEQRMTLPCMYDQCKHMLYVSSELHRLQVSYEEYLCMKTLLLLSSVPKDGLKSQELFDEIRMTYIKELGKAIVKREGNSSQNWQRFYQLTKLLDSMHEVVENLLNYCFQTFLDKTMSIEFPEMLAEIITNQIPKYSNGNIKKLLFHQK
The experiment in a line: Glucocorticoid receptor binding assay ([3H]dexamethasone competition, GR lysate).
Conditions: not given
On the procedure: A baculovirus expression plasmid containing cDNA encoding the human glucocorticoid receptor protein (GR) was prepared using standard techniques. […] That expression plasmid was co-transfected together with wild type Autographa californica multiple nuclear polyhedrosis virus DNA into Spodopter frugiperda-21 (Sf-21) cells to generate recombinant virus containing GR cDNA. See e.g., O'Reilly, D. R., Miller, L. K., Luckow, V. A., Regulation of expression of a baculovirus ecdysteroid UDP glucosyltransferase gene. […] That recombinant virus containing GR cDNA was collected.
A suspension culture of uninfected Sf21 cells was grown to a density of 1.2×10^6 cells/ml and then infected with the recombinant virus containing GR cDNA at a multiplicity of infection of 2. Those infected Sf21 cells were incubated for 48 hours and then collected by centrifugation at 1000×g for 10 minutes at 4° C. The resulting cell pellets were resuspended in lysis buffer (50 mM Potassium Phosphate buffer, pH 7.0, 10 mM Monothioglycerol, 5 mM DTT, 20 mM Sodium Molybdate, 1 mM PMSF, 1 μg/mL aprotinin, and 10 μg/mL leupeptin) and incubated for 15 minutes on ice. Those resuspended cell pellets were homogenized using a Dounce homogenizer and a B pestle. A volume of 2 M KCl was added to the homogenized cell pellets to a final concentration of 0.4 M. The resulting GR lysates were centrifuged at 100,000×g for 60 min at 4° C. and stored for use in binding assays.
Binding assay samples were prepared in separate mini-tubes in a 96-well format at 4° C. Each binding assay sample was prepared in a volume of 250 μL of Assay Buffer (10% glycerol, 25 mM sodium phosphate, 10 mM potassium fluoride, 10 mM sodium molybdate, 0.25 mM CHAPS, 2 mM DTT and 1 mM EDTA, (adjusted to pH 7.5)) containing 50 μg of GR lysate; 2-4 nM of [^3H]dexamethasone at 84 Ci/mmol; and either a reference compound or a test compound. […] Each reference compound and test compound was assayed at varying concentrations, ranging from 0 to 10^−5 M. Each concentration of each reference compound and each test compound was assayed in triplicate. The assay samples were incubated for 16 hours at 4° C.
The assay samples were then centrifuged and the supernatants were discarded. The resulting pellets were washed twice with assay buffer lacking DTT. Radioactivity in counts per minute (CPM) of each washed pellet was determined by liquid scintillation counter (MicroBeta™, Wallach).
Specific binding for a particular sample was calculated using the equation: (Sample CPM)−(Average Non-specific CPM)
Average Non-specific CPM was defined as the amount of radioactivity from samples containing an excess (i.e. 1000 nM) of unlabeled dexamethasone. […] Ki values were determined using the Cheng-Prusoff equation using a previously determined Kd value for dexamethasone: Ki=IC50/(1+[L]/Kd)
[L]=concentration of labeled dexamethasone
Kd=dissociation constant of labeled dexamethasone
`COc1c(O)ccc2c1-c1ccc3c(c1/C(=C/c1sccc1C(=O)N1CCC(=O)CC1)O2)C(C)=CC(C)(C)N3` [Compound 252, (Z)-5-(2′-(3′-(4″-Oxo-piperidinecarbonyl)thienylmethylidene))1,2-dihydro-9-hydroxy-10-methoxy-2,2,4-trimethyl-5H-chromeno[3,4-f]quinoline] yielded a Ki of 1 to 2 nM.

In turn, `COc1c(O)ccc2c1-c1ccc3c(c1/C(=C/c1cccc(OC(F)(F)F)c1)O2)C(C)=CC(C)(C)N3` [Compound 22, (Z)-5-(3′-trifluoromethoxybenzylidene)-1,2-dihydro-9-hydroxy-10-methoxy-2,2,4-trimethyl-5H-chromeno[3,4-f]quinoline] had a Ki of more than 3 nM.

Staying with this data set, now noted: competition with 2-4 nM [3H]dexamethasone, 16 hours at 4° C., Cheng-Prusoff; read-out: Ki.
As to `CCN(C)C(=O)c1ccsc1/C=C1\Oc2ccc(O)c(OC)c2-c2ccc3c(c21)C(C)=CC(C)(C)N3` [Compound 134, (Z)-5-(2′-(3′-(ethylmethylaminocarbonyl)thienylmethylidene))-1,2-dihydro-9-hydroxy-10-methoxy-2,2,4-trimethyl-5H-chromeno[3,4-f]quinoline], the Ki is less than 1 nM.

For the compound `COCc1ccsc1/C=C1\Oc2ccc(O)c(OC)c2-c2ccc3c(c21)C(C)=CC(C)(C)N3` [Compound 193, (Z)-5-(2′-(3′-Methoxymethylthienylmethylidene))1,2-dihydro-9-hydroxy-10-methoxy-2,2,4-trimethyl-5H-chromeno[3,4-f]quinoline], the Ki fell in the range of 1 to 2 nM.

On to `COc1c(O)ccc2c1-c1ccc3c(c1/C(=C/c1ccc4c(c1)OCO4)O2)C(C)=CC(C)(C)N3` [Compound 67, (Z)-5-(3′,4′-methylenedioxybenzylidene)-1,2-dihydro-9-hydroxy-10-methoxy-2,2,4-trimethyl-5H-chromeno[3,4-f]quinoline], for which the inhibitory constant (Ki) is less than 1 nM.

`COc1c(O)ccc2c1-c1ccc3c(c1/C(=C/c1cc(F)ccc1C)O2)C(C)=CC(C)(C)N3` [Compound 37, (Z)-5-(5′-fluoro-2′-methylbenzylidene)-1,2-dihydro-9-hydroxy-10-methoxy-2,2,4-trimethyl-5H-chromeno[3,4-f]quinoline]: the Ki is less than 1 nM.

As to `COc1c(O)ccc2c1-c1ccc3c(c1/C(=C/c1cccc(C(F)(F)F)c1F)O2)C(C)=CC(C)(C)N3` [Compound 29, (Z)-5-(2′-fluoro-3′-trifluoromethylbenzylidene)-1,2-dihydro-9-hydroxy-10-methoxy-2,2,4-trimethyl-5H-chromeno[3,4-f]quinoline], the Ki fell in the range of 2 to 3 nM.

Turning to `COc1c(O)ccc2c1-c1ccc3c(c1/C(=C/c1cccc(C)c1C(=O)N1CCCC1)O2)C(C)=CC(C)(C)N3` [Compound 154, (Z)-5-(3′-Methyl-2′-(pyrrolidinecarbonyl)benzylidene)1,2-dihydro-9-hydroxy-10-methoxy-2,2,4-trimethyl-5H-chromeno[3,4-f]quinoline], the Ki is more than 3 nM.

Consider `COc1c(O)ccc2c1-c1ccc3c(c1/C(=C/c1oc(C)cc1C(=O)N1CCCCC1)O2)C(C)=CC(C)(C)N3` [Compound 151, (Z)-5-(2′-(5′-Methyl-3′-(piperidinecarbonyl)furanylmethylidene))1,2-dihydro-9-hydroxy-10-methoxy-2,2,4-trimethyl-5H-chromeno[3,4-f]quinoline], for which the Ki lay within 1 to 2 nM.

`COc1c(O)ccc2c1-c1ccc3c(c1/C(=C/c1sccc1C(C)O)O2)C(C)=CC(C)(C)N3` (racemic) [Compound 171, (±)-(Z)-5-(2′-(3′-(1″-Hydroxyethyl)thienylmethylidene))1,2-dihydro-9-hydroxy-10-methoxy-2,2,4-trimethyl-5H-chromeno[3,4-f]quinoline]: the Ki is 1 to 2 nM.

Take `COc1c(O)ccc2c1-c1ccc3c(c1/C(=C/c1sccc1CO)O2)C(C)=CC(C)(C)N3` [Compound 157, (Z)-5-(2′-(3′-Hydroxymethylthienylmethylidene))1,2-dihydro-9-hydroxy-10-methoxy-2,2,4-trimethyl-5H-chromeno[3,4-f]quinoline]: the Ki is less than 1 nM.

Turning to `COc1c(O)ccc2c1-c1ccc3c(c1/C(=C/c1sccc1C(O)C(F)(F)F)O2)C(C)=CC(C)(C)N3` (racemic) [Compound 202, (±)-(Z)-5-(2′-(3′-(1″-Hydroxy-2″,2″,2″-trifluoroethyl)thienylmethylidene))1,2-dihydro-9-hydroxy-10-methoxy-2,2,4-trimethyl-5H-chromeno[3,4-f]quinoline], the Ki lay within 1 to 2 nM.

Regarding `C=CCC(O)c1ccsc1C=C1Oc2ccc(O)c(OC)c2-c2ccc3c(c21)C(C)=CC(C)(C)N3` (single isomer, unassigned; (+)) [Compound 200, (+)-(Z)-5-(2′-(3′-(1″-Hydroxybut-3″-enyl)thienylmethylidene))1,2-dihydro-9-hydroxy-10-methoxy-2,2,4-trimethyl-5H-chromeno[3,4-f]quinoline], the Ki was in the range of 1 to 2 nM.

Turning to `COCCN(CCOC)C(=O)c1ccsc1/C=C1\Oc2ccc(O)c(OC)c2-c2ccc3c(c21)C(C)=CC(C)(C)N3` [Compound 138, (Z)-5-(2′-(3′-(di(methoxyethyl)aminocarbonyl)thienylmethylidene))-1,2-dihydro-9-hydroxy-10-methoxy-2,2,4-trimethyl-5H-chromeno[3,4-f]quinoline], the Ki was in the range of 1 to 2 nM.

On to `COc1c(O)ccc2c1-c1ccc3c(c1/C(=C/c1ccc(F)cc1S(=O)(=O)N(C)C)O2)C(C)=CC(C)(C)N3` [Compound 103, (Z)-5-(2′-dimethylaminosulphonyl-4′-fluorobenzylidene)-1,2-dihydro-9-hydroxy-10-methoxy-2,2,4-trimethyl-5H-chromeno[3,4-f]quinoline], for which the Ki was in the range of 1 to 2 nM.

`C=Cc1ccc(/C=C2\Oc3ccc(O)c(OC)c3-c3ccc4c(c32)C(C)=CC(C)(C)N4)cc1` [Compound 63, (Z)-5-(4′-vinylbenzylidene)-1,2-dihydro-9-hydroxy-10-methoxy-2,2,4-trimethyl-5H-chromeno[3,4-f]quinoline]: the Ki fell in the range of 1 to 2 nM.

For `COc1c(O)ccc2c1-c1ccc3c(c1/C(=C/c1sccc1CNC1CC1)O2)C(C)=CC(C)(C)N3` [Compound 222, (Z)-5-(2′-(3′-(Cyclopropylaminomethyl)thienylmethylidene))1,2-dihydro-9-hydroxy-10-methoxy-2,2,4-trimethyl-5H-chromeno[3,4-f]quinoline], the Ki lay in the range of 2 to 3 nM.

System in a further data set: not given
Experiment: not given
Conditions: not given
Consider `COc1c(O)ccc2c1-c1ccc3c(c1/C(=C/c1sccc1C(C)=O)O2)C(C)=CC(C)(C)N3`, for which the melting point was in the range of 222 to 224 °C.

The values are drawn from patent US20090105292A9, “Glucocorticoid Receptor Modulator Compounds and Methods” (LIGAND PHARMACEUTICALS INCORPORATED, priority 2004, published 2009).
